In PubChem BioAssay (NCI):
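Compound exposure: 48 hours, 5 concentrations, 96-well plates. TGI is the concentration that stops growth completely.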

Assays:
Assay in all cases: NCI tumour cell line growth inhibition, 48 h
HCT-15 colon = test system: HCT-15 colon
OVCAR-4 ovarian = test system: OVCAR-4 ovarian
SF-268 CNS = test system: SF-268 CNS
MDA-N = test system: MDA-N
OVCAR-3 ovarian = test system: OVCAR-3 ovarian
NCI-H23 lung = test system: NCI-H23 lung
NCI/ADR-RES ovarian = test system: NCI/ADR-RES ovarian
SNB-75 CNS = test system: SNB-75 CNS
MOLT-4 leukemia = test system: MOLT-4 leukemia
HOP-92 NSCLC = test system: HOP-92 NSCLC
UO-31 renal = test system: UO-31 renal
A549 NSCLC = test system: A549 NSCLC
BT-549 breast = test system: BT-549 breast
IGROV1 ovarian = test system: IGROV1 ovarian
UACC-62 melanoma = test system: UACC-62 melanoma
LOX IMVI melanoma = test system: LOX IMVI melanoma
TK-10 renal = test system: TK-10 renal
HCT-116 colon = test system: HCT-116 colon
786-0 renal = test system: 786-0 renal
SK-MEL-2 melanoma = test system: SK-MEL-2 melanoma
HS 578T breast = test system: HS 578T breast
MDA-MB-435 = test system: MDA-MB-435
SK-OV-3 ovarian = test system: SK-OV-3 ovarian
DU-145 prostate = test system: DU-145 prostate
SF-539 CNS = test system: SF-539 CNS
EKVX NSCLC = test system: EKVX NSCLC
M14 melanoma = test system: M14 melanoma
MCF7 breast = test system: MCF7 breast
MALME-3M melanoma = test system: MALME-3M melanoma
NCI-H460 lung = test system: NCI-H460 lung
SK-MEL-5 melanoma = test system: SK-MEL-5 melanoma
SW-620 colon = test system: SW-620 colon
NCI-H226 lung = test system: NCI-H226 lung
NCI-H522 lung = test system: NCI-H522 lung
RXF 393 renal = test system: RXF 393 renal
U251 CNS = test system: U251 CNS
HCC-2998 colon = test system: HCC-2998 colon
UACC-257 melanoma = test system: UACC-257 melanoma
KM12 colon = test system: KM12 colon
CCRF-CEM leukemia = test system: CCRF-CEM leukemia
PC-3 prostate = test system: PC-3 prostate
SR leukemia = test system: SR leukemia
HT29 colon = test system: HT29 colon
K-562 leukemia = test system: K-562 leukemia
MDA-MB-231 breast = test system: MDA-MB-231 breast
OVCAR-5 ovarian = test system: OVCAR-5 ovarian
COLO 205 colon = test system: COLO 205 colon
ACHN renal = test system: ACHN renal
A498 renal = test system: A498 renal
T-47D breast = test system: T-47D breast
SN12C renal = test system: SN12C renal
OVCAR-8 ovarian = test system: OVCAR-8 ovarian
SF-295 CNS = test system: SF-295 CNS
CAKI-1 renal = test system: CAKI-1 renal
SNB-19 CNS = test system: SNB-19 CNS
HL-60(TB) leukemia = test system: HL-60(TB) leukemia
HOP-62 NSCLC = test system: HOP-62 NSCLC
SK-MEL-28 melanoma = test system: SK-MEL-28 melanoma
RPMI-8226 leukemia = test system: RPMI-8226 leukemia

CN1CCN(C(=O)c2cn(Cc3cncn3Cc3ccc4c(c3)OCO4)cc2-c2cccc3ccccc23)CC1
TGI (HCT-15 colon): > 100 µM | TGI (OVCAR-4 ovarian): > 100 µM | TGI (SF-268 CNS): 66.5 µM | TGI (MDA-N): > 100 µM | TGI (OVCAR-3 ovarian): > 91.3 µM | TGI (NCI-H23 lung): > 89.7 µM | TGI (NCI/ADR-RES ovarian): > 100 µM | TGI (SNB-75 CNS): 67.9 µM | TGI (MOLT-4 leukemia): 33.6 µM | TGI (HOP-92 NSCLC): 57.8 µM | TGI (UO-31 renal): > 100 µM | TGI (A549 NSCLC): > 100 µM | TGI (BT-549 breast): > 63 µM | TGI (IGROV1 ovarian): > 100 µM | TGI (UACC-62 melanoma): 46.8 µM | TGI (LOX IMVI melanoma): 47.8 µM | TGI (TK-10 renal): > 100 µM | TGI (HCT-116 colon): > 100 µM | TGI (786-0 renal): > 86 µM | TGI (SK-MEL-2 melanoma): 20.8 µM | TGI (HS 578T breast): > 100 µM | TGI (MDA-MB-435): > 58.9 µM | TGI (SK-OV-3 ovarian): > 100 µM | TGI (DU-145 prostate): > 100 µM | TGI (SF-539 CNS): > 72.8 µM | TGI (EKVX NSCLC): > 100 µM | TGI (M14 melanoma): 46 µM | TGI (MCF7 breast): > 83.6 µM | TGI (MALME-3M melanoma): 26.6 µM | TGI (NCI-H460 lung): > 100 µM | TGI (SK-MEL-5 melanoma): 37.4 µM | TGI (SW-620 colon): > 100 µM | TGI (NCI-H226 lung): > 100 µM | TGI (NCI-H522 lung): 84.1 µM | TGI (RXF 393 renal): > 100 µM | TGI (U251 CNS): > 100 µM | TGI (HCC-2998 colon): 27 µM | TGI (UACC-257 melanoma): 42.7 µM | TGI (KM12 colon): > 58.3 µM | TGI (CCRF-CEM leukemia): > 77.2 µM | TGI (PC-3 prostate): > 86.3 µM | TGI (SR leukemia): 10.3 µM | TGI (HT29 colon): > 95.5 µM | TGI (K-562 leukemia): 53.5 µM | TGI (MDA-MB-231 breast): 33.3 µM | TGI (OVCAR-5 ovarian): > 100 µM | TGI (COLO 205 colon): 49.9 µM | TGI (ACHN renal): > 100 µM | TGI (A498 renal): 32.1 µM | TGI (T-47D breast): > 100 µM | TGI (SN12C renal): > 100 µM | TGI (OVCAR-8 ovarian): > 100 µM | TGI (SF-295 CNS): 70.6 µM | TGI (CAKI-1 renal): > 84.9 µM | TGI (SNB-19 CNS): > 100 µM | TGI (HL-60(TB) leukemia): 23.2 µM | TGI (HOP-62 NSCLC): > 100 µM | TGI (SK-MEL-28 melanoma): 63.6 µM | TGI (RPMI-8226 leukemia): 38.7 µM
